Measurements reported in patent US7745646B2, “Bicyclic heteroaryl inhibitors of PDE4” (Kalypsys, Inc., priority 2006, dated 2010).

Each compound was assayed on Lacrimal Gland Inflammation-Induced Dry Eye in Rabbits (assay: Lacrimal Gland Inflammation-Induced Dry Eye in Rabbits). Conditions: 1 percent, topical ocular BID, rabbit dry eye.
Type: in vivo
Description: A more detailed description of the assay used herein may be found in Naglehout, T J et al. 2005, “Preservation of Tear Film Integrity and Inhibition of Corneal Injury by Dexamethasone in a Rabbit Model of Lacrimal Gland Inflammation-Induced Dry Eye,” J. Ocular Pharm. Ther., 21:2. 139-148, the disclosure of which is hereby incorporated by reference as if written herein in its entirety.
Rabbits (n=4/group) were randomized into treatment groups and dosed topically BID with maxidex vehicle or test drug beginning one day prior to initiation of dry eye. Each rabbit received bilateral lacrimal gland injections of saline or ConA (300 μg/30 μl) and topical ocular dosing was continued BID throughout the study.
Desiccation was initiated 1-2 hours following lacrimal gland injection by placing conscious rabbits in the environmental chamber (10-15% humidity/72° F.). […] Absorbance of the extracted dye was determined at 660 nm.
TBUT was quantified in a separate group of treated animals. TBUT was determined by instilling 5 μL sodium fluorescein into the cul de sac and manually blinking the lids to distribute the fluorescein within the tear film. Under slit lamp observation, the eye was held open and the time whereby one or more black spots or streaks appeared in the precorneal tear film was recorded. […]

COc1ccc2c(Nc3c(Cl)cncc3Cl)cc(=O)oc2c1OC1CCCC1 [Example 3, 8-(Cyclopentyloxy)-4-(3,5-dichloropyridin-4-ylamino)-7-methoxy-2H-chromen-2-one] was tested, and the “Activity at Percent Concentration Tested” value was “Inactive”.
With COc1ccc2c(Nc3c(Cl)cncc3Cl)cc(=O)oc2c1OCC1CC1 [Example 5, 8-(Cyclopropylmethoxy)-4-(3,5-dichloropyridin-4-ylamino)-7-methoxy-2H-chromen-2-one] the “Activity at Percent Concentration Tested” value was “Inactive”.

Each compound was assayed against T1, PDE4B (Homo sapiens, UniProt Q07343) (assay: Novel coupled PDE/AK bioluminescent assay, PDE4B inhibition). Conditions: PDE4B catalytic domain.
T1 construct: hex-histidine (His6) (N); made in house
Type: biochemical
Description: We developed a novel coupled PDE/AK bioluminescent high-throughput assay to measure the activity of phosphodiesterases. In the PDE/AK assay, the AMP produced from the hydrolysis of cAMP by phosphodiesterase is converted to adenosine diphosphate (ADP) by the phosphotransferase activity of adenylate kinase (also known as ADK or myokinase). Adenylate kinase will catalyze the conversion of 1 mole of AMP and 1 mole of ATP into 2 moles of ADP. Thus the conversion of AMP to ADP will result in the subsequent loss of ATP. The decrease in ATP concentration can be monitored as light output using luciferase in a reaction that requires ATP to produce light. The PDE/AK assay uses luciferase, which catalyzes the production of light from ATP present in the reaction mix. The amount of emitted light is inversely proportional to the level of AMP present in the reaction. Test compounds are incubated with the phosphodiesterases and phosphodiesterase inhibitors will decrease the rate of cAMP hydrolysis and decrease the subsequent production of AMP.
A novel coupled PDE/AK assay was utilized to measure the inhibitory activity of compounds on PDE isoforms. The catalytic domain of PDE4B was fused to an amino-terminus hex-histidine affinity tag and purified. PDE4B enzyme was incubated with compounds for 10 minutes. Cyclic AMP substrate, ATP and adenylate kinase were then added to the PDE enzyme mix and incubated for 45 minutes at room temperature. A commercial ATP detection assay, Perkin Elmer's easyLite ATP detection reagent, was then added to measure the relative amount of ATP present in the reaction. After 10 minute incubation, the luminescent signal was quantitated with either the Perkin Elmer Viewlux or Molecular Devices Acquest or Analyst.

T1 sequence (Q07343 330-659 limits assumed, species assumed): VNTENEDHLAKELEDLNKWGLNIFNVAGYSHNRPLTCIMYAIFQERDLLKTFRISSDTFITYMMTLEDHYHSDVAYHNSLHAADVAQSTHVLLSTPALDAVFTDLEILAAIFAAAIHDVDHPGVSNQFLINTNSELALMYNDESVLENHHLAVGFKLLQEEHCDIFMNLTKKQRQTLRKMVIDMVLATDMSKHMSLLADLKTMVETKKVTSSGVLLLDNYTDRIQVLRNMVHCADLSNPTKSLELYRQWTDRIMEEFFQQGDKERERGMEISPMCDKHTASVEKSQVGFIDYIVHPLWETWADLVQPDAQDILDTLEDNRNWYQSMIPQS

COc1ccc2c(Nc3c(Cl)cncc3Cl)cc(=O)oc2c1OC1CCCC1 [Example 3, 8-(Cyclopentyloxy)-4-(3,5-dichloropyridin-4-ylamino)-7-methoxy-2H-chromen-2-one] and C=C(OCC)c1cncc(Cl)c1Nc1cc(=O)oc2c(OC3CCCC3)c(OC)ccc12 [Example 15, 4-(3-Chloro-5-(1-ethoxyvinyl)pyridin-4-ylamino)-8-(cyclopentyloxy)-7-methoxy-2H-chromen-2-one] cannot be ordered by IC50: less than 1000 nM for the first, less than 1000 nM for the second.

COc1ccc2c(Nc3c(Cl)cncc3Cl)cc(=O)oc2c1OCC1CC1 [Example 5, 8-(Cyclopropylmethoxy)-4-(3,5-dichloropyridin-4-ylamino)-7-methoxy-2H-chromen-2-one] and COc1ccc2c(Nc3c(Cl)cncc3Cl)cc(=O)oc2c1OC [Example 64, 4-(3,5-Dichloropyridin-4-ylamino)-7,8-dimethoxy-2H-chromen-2-one] cannot be ordered by IC50: less than 1000 nM for the first, less than 1000 nM for the second.

COC(=O)CCCCCOc1c(OC)ccc2c(Nc3c(Cl)cncc3Cl)cc(=O)oc12 [Example 58, Methyl 6-(4-(3,5-dichloropyridin-4-ylamino)-7-methoxy-2-oxo-2H-chromen-8-yloxy)hexanoate] and CCOC(=O)CCCCCOc1c(OC)ccc2c(Nc3c(Cl)cncc3Cl)cc(=O)oc12 [Example 38, Ethyl 6-(4-(3,5-dichloropyridin-4-ylamino)-7-methoxy-2-oxo-2H-chromen-8-yloxy)hexanoate] cannot be ordered by IC50: less than 1000 nM for the first, less than 1000 nM for the second.

COc1ccc2c(Nc3c(Cl)cncc3Cl)cc(=O)oc2c1OCCCCCN1CCCC1 [Example 55, 4-(3,5-Dichloropyridin-4-ylamino)-7-methoxy-8-(5-(pyrrolidin-1-yl)pentyloxy)-2H-chromen-2-one] and COc1ccc2c(Nc3c(Cl)cncc3Cl)cc(=O)oc2c1OCCCCN1CCN(C)CC1 [Example 70, 4-(3,5-Dichloropyridin-4-ylamino)-7-methoxy-8-(4-(4-methylpiperazin-1-yl)butoxy)-2H-chromen-2-one] cannot be ordered by IC50: less than 1000 nM for the first, less than 1000 nM for the second.

COc1ccc2c(Nc3c(Cl)cncc3Cl)cc(=O)oc2c1OCCCCCn1cncn1 [Example 103, 8-(5-(1H-1,2,4-Triazol-1-yl)pentyloxy)-4-(3,5-dichloropyridin-4-ylamino)-7-methoxy-2H-chromen-2-one] and COc1ccc2c(Nc3c(Cl)cncc3Cl)cc(=O)oc2c1OCCCCCn1ncnn1 [Example 101, 8-(5-(2H-Tetrazol-2-yl)pentyloxy)-4-(3,5-dichloropyridin-4-ylamino)-7-methoxy-2H-chromen-2-one] cannot be ordered by IC50: less than 1000 nM for the first, less than 1000 nM for the second.

COc1ccc2c(Nc3c(Cl)cncc3Cl)cc(=O)oc2c1OCCc1ccccc1 [Example 41, 4-(3,5-Dichloropyridin-4-ylamino)-7-methoxy-8-phenethoxy-2H-chromen-2-one] and COc1ccc2c(Nc3c(Cl)cncc3Cl)cc(=O)oc2c1OCc1ccccc1[N+](=O)[O-] [Example 33, 4-(3,5-Dichloropyridin-4-ylamino)-7-methoxy-8-(2-nitrobenzyloxy)-2H-chromen-2-one] cannot be ordered by IC50: less than 1000 nM for the first, less than 1000 nM for the second.

First: COc1ccc2c(Nc3c(Cl)cncc3Cl)cc(=O)oc2c1OCC(=O)O [Example 49, 2-(4-(3,5-Dichloropyridin-4-ylamino)-7-methoxy-2-oxo-2H-chromen-8-yloxy)acetic acid]
Second: COC(=O)COc1c(OC)ccc2c(Nc3c(Cl)cncc3Cl)cc(=O)oc12 [Example 45, Methyl 2-(4-(3,5-dichloropyridin-4-ylamino)-7-methoxy-2-oxo-2H-chromen-8-yloxy)acetate]
The IC50 of the first is higher: greater than 1000 nM for the first, less than 1000 nM for the second. The second is the more potent here.

COc1ccc2c(Nc3c(Cl)cncc3Cl)cc(=O)oc2c1OCCCCCCCC(=O)O [Example 66, 8-(4-(3,5-Dichloropyridin-4-ylamino)-7-methoxy-2-oxo-2H-chromen-8-yloxy)octanoic acid] and COc1ccc2c(Nc3c(Cl)cncc3Cl)cc(=O)oc2c1OCCCCCC(N)=O [Example 78, 6-(4-(3,5-Dichloropyridin-4-ylamino)-7-methoxy-2-oxo-2H-chromen-8-yloxy)hexanamide] cannot be ordered by IC50: less than 1000 nM for the first, less than 1000 nM for the second.

CCCCN(C)CCCCCOc1c(OC)ccc2c(Nc3c(Cl)cncc3Cl)cc(=O)oc12 [Example 90, 8-(5-(Butyl(methyl)amino)pentyloxy)-4-(3,5-dichloropyridin-4-ylamino)-7-methoxy-2H-chromen-2-one] and CNCCCCCOc1c(OC)ccc2c(Nc3c(Cl)cncc3Cl)cc(=O)oc12 [Example 100, 4-(3,5-Dichloropyridin-4-ylamino)-7-methoxy-8-(5-(methylamino)pentyloxy)-2H-chromen-2-one] cannot be ordered by IC50: less than 1000 nM for the first, less than 1000 nM for the second.

COc1ccc2c(Nc3ccccc3Cl)cc(=O)oc2c1OCC1CC1 [Example 24, 4-(2-Chlorophenylamino)-8-(cyclopropylmethoxy)-7-methoxy-2H-chromen-2-one] and COc1ccc2c(Nc3ccccc3Cl)cc(=O)oc2c1OC1CCCC1 [Example 19, 4-(2-Chlorophenylamino)-8-(cyclopentyloxy)-7-methoxy-2H-chromen-2-one] cannot be ordered by IC50: less than 1000 nM for the first, less than 1000 nM for the second.

First: COC(=O)c1cccc(Cl)c1Nc1cc(=O)oc2c(OC3CCCC3)c(OC)ccc12 [Example 20, Methyl 3-chloro-2-(8-(cyclopentyloxy)-7-methoxy-2-oxo-2H-chromen-4-ylamino)benzoate]
Second: COc1ccc2c(Cc3c(Cl)cncc3Cl)cc(=O)oc2c1OC1CCCC1 [Example 2, 8-(Cyclopentyloxy)-4-[(3,5-dichloropyridin-4-yl)methyl]-7-methoxy-2H-chromen-2-one]
The IC50 of the first is higher: greater than 1000 nM for the first, less than 1000 nM for the second.

COc1ccc2c(Nc3c(Cl)cncc3Cl)c(C)c(=O)oc2c1OC1CCCC1 [Example 13, 8-(Cyclopentyloxy)-4-(3,5-dichloropyridin-4-ylamino)-7-methoxy-3-methyl-2H-chromen-2-one] and COc1ccc2c(Nc3c(Cl)cncc3Cl)cc(=O)oc2c1OCCCN(C)C [Example 32, 4-(3,5-Dichloropyridin-4-ylamino)-8-(3-(dimethylamino)propoxy)-7-methoxy-2H-chromen-2-one] cannot be ordered by IC50: less than 1000 nM for the first, less than 1000 nM for the second.

COc1ccc2c(Nc3c(Cl)cncc3Cl)cc(=O)oc2c1OCCCCOC(C)=O [Example 86, 4-(4-(3,5-Dichloropyridin-4-ylamino)-7-methoxy-2-oxo-2H-chromen-8-yloxy)butyl acetate] and COc1ccc2c(Nc3c(Cl)cncc3Cl)cc(=O)oc2c1OCCCCCn1nccn1 [Example 99, 8-(5-(2H-1,2,3-Triazol-2-yl)pentyloxy)-4-(3,5-dichloropyridin-4-ylamino)-7-methoxy-2H-chromen-2-one] cannot be ordered by IC50: less than 1000 nM for the first, less than 1000 nM for the second.

Going from COc1ccc2c(Nc3c(Cl)cncc3Cl)cc(=O)oc2c1OCCCCCc1nn[nH]n1 [Example 63, 8-(5-(2H-Tetrazol-5-yl)pentyloxy)-4-(3,5-dichloropyridin-4-ylamino)-7-methoxy-2H-chromen-2-one] to COC(=O)CCCCCOc1c(OC)ccc2c(N(C)c3c(Cl)cncc3Cl)cc(=O)oc12 [Example 59, Methyl 6-(4-((3,5-dichloropyridin-4-yl)(methyl)amino)-7-methoxy-2-oxo-2H-chromen-8-yloxy)hexanoate], the IC50 rises from less than 1000 nM to greater than 1000 nM. The first is the more potent here.
